Consider four compounds from patent US20250346606A1, “CAMPTOTHECIN COMPOUND, PREPARATION METHOD THEREFOR, AND APPLICATION THEREOF” (SICHUAN KELUN-BIOTECH BIOPHARMACEUTICAL CO., LTD., priority 2021, published 2025).

Where two headings read alike, the source gives them in different places.

What all share (format): cell-based, Human
One assay deals with Jeko-1 cells. Kind of assay: Inhibitory effect of compounds on Jeko-1 cell proliferation. Particulars: read-out: IC50, inhibitory activity on Jeko-1 cell proliferation. Summed up:
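After 72 h incubation with compound, Jeko-1 cell viability was measured by Cell Counting-Lite 2.0 luminescence (10 min reaction). Inhibition was calculated relative to vehicle and cell-free background RLU, and IC50 was obtained by four-parameter curve fitting.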

For the next assay, the system named is HCC70 cells. Kind of assay: Inhibitory effect of compounds on HCC70 cell proliferation. The conditions noted are these: read-out: IC50, inhibitory activity on HCC70 cell proliferation. The method, then:
(1) Cell plating: First, tumor cells HCC70 were cultured in corresponding medium, then digested with trypsin, centrifuged, resuspended, and counted, and the cells were adjusted to an appropriate concentration for plating.
(§1) Co-incubation of the compound of the present disclosure and tumor cells: after the cells adhered to the wall, the medium was removed, and the diluted bioactive molecule (the compound of the present disclosure) was added to the wells of the above plate, and incubated for 72 h.
(§2) In vitro cell viability detection: After the incubation, 50 μL of Cell Counting-Lite™ 2.0 reagent (Vazyme/Novazyme) was added to each well, shaken and mixed well in the dark, reacted for 10 minutes, and then the detection was carried out with a microplate reader (manufacturer: BMG, Model: PHERAStar-FS) for reading. The background RLU was obtained by using cell-free medium (with Cell Counting-Lite™), and the vehicle RLU was obtained by using cell-containing medium (with Cell Counting-Lite™). Cell inhibition rate=1−(sample RLU−background RLU)/(solvent RLU−background RLU)×100%. According to the four-parameter model fitting curve, the half maximal inhibitory concentration (IC50) of the compound was calculated, and the detection results were shown in Table 16.

The test system of the next assay is A549 cells. Kind of assay: Inhibitory effect of compounds on A549 cell proliferation. The conditions noted are these: read-out: IC50, inhibitory activity on A549 cell proliferation.
Another assay relates to MDA-MB-231 cells. Kind of assay: Inhibitory effect of compounds on MDA-MB-231 cell proliferation. The conditions noted are these: read-out: IC50, inhibitory activity on MDA-MB-231 cell proliferation. How it is done:
(1) Cell plating: First, tumor cells MDA-MB-231 were cultured in corresponding medium, then digested with trypsin, centrifuged, resuspended, and counted, and the cells were adjusted to an appropriate concentration for plating.
as §1
as §2, with “18.” for “16.”

With `CC#C[C@@H](O)C(=O)N[C@H]1CCc2c(C)c(F)cc3nc4c(c1c23)Cn1c-4cc2c(c1=O)COC(=O)[C@]2(O)CC` [Example 1 (1-1-A), (R)—N-((1S,9S)-9-ethyl-5-fluoro-9-hydroxy-4-methyl-10,13-dioxo-2,3,9,10,13,15-hexahydro-1H,12H-benzo[de]pyrano[3′,4′:6,7]indolizino[1,2-b]quinolin-1-yl)-2-hydroxypent-3-yneamide], the IC50 was determined as 1.33 nM in the assay with Jeko-1 cells (Homo sapiens, JeKo-1, 72 h); 225 nM with HCC70 cells (Homo sapiens, HCC70, 72 h); 66.6 nM with A549 cells (Homo sapiens, A549, 72 h); 364 nM in the assay on MDA-MB-231 cells (Homo sapiens, MDA-MB-231, 72 h).

Take `CC[C@@]1(O)C(=O)OCc2c1cc1n(c2=O)Cc2c-1nc1cc(Cl)c(C)c3c1c2[C@@H](NC(=O)[C@@H](O)C1CC1)CC3` [Example 5 (2-12-A), (2S)—N-((1S,9S)-5-chloro-9-ethyl-9-hydroxy-4-methyl-10,13-dioxo-2,3,9,10,13,15-hexahydro-1H,12H-benzo[de]pyrano[3′,4′:6,7]indolizino[1,2-b]quinolin-1-yl)-2-cyclopropyl-2-hydroxyacetamide]: the IC50 amounted to 171 nM in the assay on HCC70 cells (Homo sapiens, HCC70, 72 h); 6.96 nM with A549 cells (Homo sapiens, A549, 72 h); 124 nM in the assay with MDA-MB-231 cells (Homo sapiens, MDA-MB-231, 72 h).

For `CC[C@@]1(O)C(=O)OCc2c1cc1n(c2=O)Cc2c-1nc1cc(Cl)c(C)c3c1c2[C@H](NC(=O)[C@@H](O)C1CC1)CC3` [Example 5 (2-12-B), (2S)—N-((1R,9S)-5-chloro-9-ethyl-9-hydroxy-4-methyl-10,13-dioxo-2,3,9,10,13,15-hexahydro-1H,12H-benzo[de]pyrano[3′,4′:6,7]indolizino[1,2-b]quinolin-1-yl)-2-cyclopropyl-2-hydroxyacetamide], the IC50 is 176 nM in the assay on HCC70 cells (Homo sapiens, HCC70, 72 h) and 5.52 nM in the assay on A549 cells (Homo sapiens, A549, 72 h).

On to “(2S)—N-((1S,9S)-5-chloro-9-ethyl-9-hydroxy-4-methyl-10,13-dioxo-2,3,9,10,13,15-hexahydro-1H,12H-benzo[de]pyrano[3′,4′:6,7]indolizino[1,2-b]quinolin-1-yl)-2-hydroxypropylamine [Example 4 (2-7-A)]”, for which the IC50 in the assay with Jeko-1 cells (Jeko-1 human mantle cell lymphoma cells, 72 h incubation, Cell Counting-Lite 2.0) was 0.28 nM; in the assay on HCC70 cells (HCC70 human breast cancer cells, 72 h incubation, Cell Counting-Lite 2.0), 151 nM; in the assay with A549 cells (A549 human lung cancer cells, 72 h incubation, Cell Counting-Lite 2.0), 6.97 nM; in the assay on MDA-MB-231 cells (MDA-MB-231 human breast cancer cells, 72 h incubation, Cell Counting-Lite 2.0), 124 nM.
